{
  "source": "patent US20240408170A1",
  "about": "“COMPOSITION FOR DECOMPOSITION OF TRYPSIN OR TMPRSS2” (Riken, priority 2021, published 2024)",
  "key": {"[1]": {"molecular_target": "T1, recombinant mouse PRSS2 (Mus musculus, UniProt P07146)", "T1 construct": "purchased Sino Biological, Inc. 50383-M08H", "T1 sequence (P07146 24-246)": "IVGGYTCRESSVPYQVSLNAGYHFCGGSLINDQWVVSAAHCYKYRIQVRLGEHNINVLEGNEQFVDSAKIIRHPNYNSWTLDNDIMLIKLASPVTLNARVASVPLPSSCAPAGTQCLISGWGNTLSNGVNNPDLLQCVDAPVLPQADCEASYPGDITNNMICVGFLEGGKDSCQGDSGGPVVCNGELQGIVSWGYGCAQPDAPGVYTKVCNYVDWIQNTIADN", "test": "Trypsin decomposition in vitro by bacteria (western blot)", "type": "biochemical", "procedure": "(§1) Mouse faecal samples were suspended and diluted 50-fold with phosphate buffered saline (PBS) to which a protease inhibitor cocktail (Roche) was added. Subsequently, the suspended sample was centrifuged at 15,000×g for 10 minutes at 4° C., and the supernatant was subjected to western blot. Mouse pancreatic tissue was rapidly frozen in liquid nitrogen. Proteins were extracted by TRIzol Reagent (Thermo Fisher Scientific K.K.), and the final protein concentration was adjusted to 4 μg/μL. For SDS-PAGE and blotting, Novex (registered trademark) NuPAGE (registered trademark) SDS-PAGE Gel system (Thermo Fisher Scientific K.K.) and iBlot™ 2 Dry Blotting System (Thermo Fisher Scientific K.K.) were used according to the manufacturer's instructions.\n(§2) The bacteria cultured overnight were incubated with recombinant mouse trypsin (final concentration: 1 μg/mL) for 1 hour or with human trypsin (final concentration: 20 μg/mL) for 4 hours. Recombinant trypsin isoforms used were as follows: recombinant mouse PRSS2 (50383-M08H, Sino Biological, Inc.), recombinant human PRSS1 (LS-G135640), recombinant human PRSS2 (LS-G20167), and recombinant human PRSS3 (His-tag) (NBP2-52220).\nIn some experiments, recombinant mouse PRSS2 was first treated with one of the following trypsin inhibitors for 30 minutes before incubation with a P. clara culture solution. AEBSF (Sigma-Aldrich, final concentration: 2 mM), Leupeptin (Sigma-Aldrich, final concentration: 100 μM), and TLCK (Abcam plc., final concentration: 100 μM).\nIn some experiments, P. clara was cultured overnight in the presence of Tunicamycin (Sigma-Aldrich, final concentration: 10 μg/mL), 2-Fluoro-L-fucose (Cayman Chemical Company, final concentration: 250 μM), or the corresponding DMSO control, before incubation with recombinant mouse PRSS2.\nIn the experiment of evaluating the effect of Ca^2+, P. clara was cultured in a low Ca^2+ mGAM medium supplemented with or without 1 mM of Ca^2+, before incubation with recombinant mouse PRSS2. In the experiment in which the supernatant of P. clara was used, P. clara cultured overnight was filtered through a sterilization filter unit formed using a PVDF film having a pore size of 0.22 μm."}, "[2]": {"tested_on": "FITC-casein substrate", "test": "Protease activity assay (cleavage of FITC-labeled casein)", "type": "biochemical", "procedure": "The protease activity of the P. clara culture solution, the P. clara culture solution supernatant, the recombinant 00502 protein, and the recombinant 005009 protein were measured using Pierce™ Fluorescent Protease Assay Kit (#23266, Thermo Fisher Scientific K.K.) according to the manufacturer's protocol.\nUsing PerkinElmer 2030 Multilabel Reader equipped with an excitation filter and a fluorescence filter of fluorescein (485/538 nm), an increase in total fluorescence due to digestion of the FITC-casein substrate to smaller fluorescein-labeled fragments was detected. The protease activity was measured as a change in relative fluorescence units (RFUs)."}, "[3]": {"molecular_target": "T2, recombinant human PRSS1 (Homo sapiens, UniProt P07477)", "T2 construct": "purchased LS-G135640", "test": "Human trypsin decomposition in vitro by P. clara (western blot)", "type": "biochemical", "procedure": "as §1, §2"}, "[4]": {"molecular_target": "T3, recombinant human PRSS2 (Homo sapiens, UniProt P07478)", "T3 construct": "purchased LS-G20167", "T3 sequence (P07478 24-247)": "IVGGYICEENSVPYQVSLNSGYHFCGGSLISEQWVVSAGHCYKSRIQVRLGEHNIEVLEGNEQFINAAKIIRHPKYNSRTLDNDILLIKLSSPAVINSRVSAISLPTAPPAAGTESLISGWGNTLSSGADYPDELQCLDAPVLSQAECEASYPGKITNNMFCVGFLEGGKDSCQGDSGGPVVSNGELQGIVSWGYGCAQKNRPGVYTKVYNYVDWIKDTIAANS", "test": "Human trypsin decomposition in vitro by P. clara (western blot)", "type": "biochemical", "procedure": "as §1, §2"}, "[5]": {"molecular_target": "T4, trypsin (Mus musculus, UniProt P07146)", "T4 construct": "the anionic trypsin protease was abundantly present in the cecal contents and the faeces; from tissue; host or cells: faeces and cecal contents of germ-free / gnotobiotic mice", "T4 sequence (P07146 24-246)": "T1 sequence (P07146 24-246)", "test": "Substrate specificity: ex vivo incubation of GF mouse cecal contents with P. clara, peptidome analysis by LC-MS", "type": "biochemical", "conditions": "7614 peptides derived from 276 proteins, cecal contents of GF mice", "procedure": "An acetonitrile (ACN) containing 0.1% trifluoroacetic acid (TFA) was added to the cecal contents and dried with a centrifugal evaporator. Acetone was added to the dried sample, and a low-molecular-weight compound that was soluble in lipids was extracted with a water bath type sonicator. Thereafter, centrifugation was performed at 15,000×g for 15 minutes at 4° C.\nAfter removing the supernatant, 70% ACN-HCl was added to the precipitate, and the peptides were redissolved in a water bath type sonicator. Thereafter, centrifugation was performed at 15,000×g for 15 minutes at 4° C. Subsequently, the supernatant was transferred to a new tube and dried with a centrifugal evaporator. Subsequently, the dried sample was redissolved in 100 mM Tris-HCl containing a protease inhibitor, and then treated with 10 mM dithiothreitol at 50° C. for 30 minutes. Thereafter, alkylation was carried out with 30 mM iodoacetamide for 30 minutes at room temperature in a dark place. Thereafter, acidification was carried out with 0.5% trifluoroacetic acid (final concentration). The acidified sample was desalted with MonoSpin C18 (GL Sciences Inc.). […]\nThe peptides eluted from the column were analyzed by DDA-MS using Q Exactive HF-X (Thermo Fisher Scientific K.K.). […]"}, "[6]": {"molecular_target": "T1, recombinant mouse PRSS2", "test": "Binding of Alexa Fluor 488-labeled rmPRSS2 to the surface of bacteria (confocal microscope)", "procedure": "Recombinant mouse PRSS2 was labeled with Alexa Fluor™ 488 using an Alexa Fluor™ 488 Antibody Labeling Kit (Δ20181, Thermo Fisher Scientific K.K.), and was pretreated with an AEBSF inhibitor (150 μg/mL rmPRSS2 with 20 mM AEBSF).\nMouse PRSS2 labeled with Alexa Fluor™ 488 was incubated in an anaerobic chamber for 20 minutes with bacteria cultured at a final concentration of 5 μg/mL. The mixture was centrifuged, washed once with PBS, and then resuspended in PBS. A Leica TCS SP8 confocal microscope was used for capturing a confocal image."}},
  "data": [
    {"substance": "Paraprevotella clara [P. clara (strain ID: 1C4)]", "values": [
      {"measurement": "reaction rate of trypsin decomposition by P. clara", "setting": "[1]", "value": "gradually occurs stoichiometrically"},
      {"measurement": "dependence of P. clara-mediated trypsin decomposition on divalent cations", "setting": "[1]; Ca2+", "value": "occurred only in the presence of a sufficient amount of divalent cations"},
      {"measurement": "decomposition of rmPRSS2 (western blot)", "setting": "[1]; bacteria or culture supernatant incubated with recombinant mouse trypsin", "value": "reduced trypsin"},
      {"measurement": "protease activity (change in relative fluorescence units)", "setting": "[2]", "value": "no proteolytic activity was detected"},
      {"measurement": "decomposition of human trypsin PRSS1 (western blot)", "setting": "[3]", "value": "can promote the reduction"},
      {"measurement": "decomposition of human trypsin PRSS2 (western blot)", "setting": "[4]", "value": "can promote the reduction"},
      {"measurement": "substrate specificity: proteins with increase in peptide concentration over time", "setting": "[5]", "value": "trypsin was only one protein that exhibited a pattern of a clear increase in peptide concentration over time"},
      {"measurement": "binding of rmPRSS2 to the surface of bacteria", "setting": "[6]", "value": "accumulate on the surface"}
    ]}
  ]
}
